Test results as given in ChEMBL document CHEMBL4390652, “Design, biological evaluation and X-ray crystallography of nanomolar multifunctional ligands targeting simultaneously acetylcholinesterase and glycogen synthase kinase-3” (Eur J Med Chem, 2019).
pIC50: −log10 of the molar value.

What was measured:
[1] = target: Aurora kinase B (Homo sapiens) (UniProt Q96GD4); test: Binding affinity to wild-type human partial length AURKB (D25 to A303 residues) expressed in mammalian expression system assessed as residual binding level at 10 uM by Kinomescan method relative to control
[2] = target: Serine/threonine-protein kinase WNK3 (Homo sapiens) (UniProt Q9BYP7); test: Binding affinity to wild-type human partial length WNK3 (M1 to D434 residues) expressed in mammalian expression system assessed as residual binding level at 10 uM by Kinomescan method relative to control
Cholinesterase = Cholinesterase (Homo sapiens, UniProt P06276); test: Inhibition of human serum BChE using BTCh as substrate preincubated for 20 mins followed by substrate addition and measured for 3 mins by Ellman's method
[3] = target: Phosphatidylinositol 3-kinase catalytic subunit type 3 (Homo sapiens) (UniProt Q8NEB9); test: Binding affinity to wild-type human partial length VPS34 (S282 to H879 residues) expressed in mammalian expression system assessed as residual binding level at 10 uM by Kinomescan method relative to control
[4] = target: Mitogen-activated protein kinase kinase kinase 13 (Homo sapiens) (UniProt O43283); test: Binding affinity to wild-type human full length LZK (M1 to W966 residues) expressed in mammalian expression system assessed as residual binding level at 10 uM by Kinomescan method relative to control
[5] = tested on: Mast/stem cell growth factor receptor Kit (Homo sapiens), P10721 [UNDEFINED MUTATION]; test: Binding affinity to human partial length KIT V559D/V654 double mutant (Y545 to D952 residues) expressed in bacterial expression system assessed as residual binding level at 10 uM by Kinomescan method relative to control
[6] = target: Phosphatidylinositol 4,5-bisphosphate 3-kinase catalytic subunit gamma isoform (Homo sapiens) (UniProt P48736); test: Binding affinity to wild-type human partial length PIK3CG (S144 to A1102 residues) expressed in mammalian expression system assessed as residual binding level at 10 uM by Kinomescan method relative to control
[7] = target: Mitogen-activated protein kinase kinase kinase 2 (Homo sapiens) (UniProt Q9Y2U5); test: Binding affinity to wild-type human partial length MAP3K2 (S315 to H619 residues) expressed in mammalian expression system assessed as residual binding level at 10 uM by Kinomescan method relative to control
[8] = Cytotoxicity against human SH-SY5Y cells assessed as reduction in cell viability at 100 uM incubated for 24 hrs by MTT assay relative to untreated cells; type: cell-based; conditions: read-out: INH
[9] = target: Cyclin-dependent kinase 5/CDK5 activator 1 (Homo sapiens, UniProt Q00535); type: protein-complex assay
Description: Inhibition of human recombinant CDK5/p25 using histone H1 as substrate in presence of [gamma-33P]ATP incubated for 30 mins by liquid scintillation counting assay

[10] = target: Phosphatidylinositol 4,5-bisphosphate 3-kinase catalytic subunit beta isoform (Homo sapiens) (UniProt P42338); test: Binding affinity to wild-type human partial length PIK3CB (P118 to S1070 residues) expressed in mammalian expression system assessed as residual binding level at 10 uM by Kinomescan method relative to control
[11] = target: Serine/threonine-protein kinase DCLK1 (Homo sapiens) (UniProt O15075); test: Binding affinity to wild-type human partial length DCAMKL1 (L270 to A662 residues) expressed in mammalian expression system assessed as residual binding level at 10 uM by Kinomescan method relative to control
[12] = tested on: Tyrosine-protein kinase ABL1 (Homo sapiens), P00519 [M351T]; test: Binding affinity to human phosphorylated ABL1 M351T mutant (S229 to K512 residues) expressed in mammalian expression system assessed as residual binding level at 10 uM by Kinomescan method relative to control
[13] = tested on: Epidermal growth factor receptor (Homo sapiens), P00533 [UNDEFINED MUTATION]; test: Binding affinity to human partial length EGFR S752-I759del mutant expressed in bacterial expression system assessed as residual binding level at 10 uM by Kinomescan method relative to control
[14] = tested on: Tyrosine-protein kinase ABL1 (Homo sapiens), P00519 [T315I]; test: Binding affinity to human phosphorylated ABL1 T315I mutant (S229 to K512 residues) expressed in mammalian expression system assessed as residual binding level at 10 uM by Kinomescan method relative to control
[15] = target: Cyclin-dependent kinase 2 homolog (Plasmodium falciparum (isolate 3D7)) (UniProt P61075); test: Binding affinity to wild-type Plasmodium falciparum full length PK5 (M1 to N288 residues) expressed in mammalian expression system assessed as residual binding level at 10 uM by Kinomescan method relative to control
[16] = target: Membrane-associated tyrosine- and threonine-specific cdc2-inhibitory kinase (Homo sapiens) (UniProt Q99640); test: Binding affinity to wild-type human partial length PKMYT1 (A88 to G366 residues) expressed in bacterial expression system assessed as residual binding level at 10 uM by Kinomescan method relative to control
[17] = target: Myosin-IIIb (Homo sapiens) (UniProt Q8WXR4); test: Binding affinity to wild-type human partial length MYO3B (M1 to D357 residues) expressed in bacterial expression system assessed as residual binding level at 10 uM by Kinomescan method relative to control
[18] = target: Cyclin-dependent kinase 11A (Homo sapiens) (UniProt Q9UQ88); test: Binding affinity to wild-type human partial length CDC2L2 (D391 to K730 residues) expressed in bacterial expression system assessed as residual binding level at 10 uM by Kinomescan method relative to control
[19] = target: Mitogen-activated protein kinase kinase kinase 20 (Homo sapiens) (UniProt Q9NYL2); test: Binding affinity to wild-type human partial length ZAK (M1 to L331 residues) expressed in bacterial expression system assessed as residual binding level at 10 uM by Kinomescan method relative to control
[20] = tested on: Tyrosine-protein kinase ABL1 (Homo sapiens), P00519 [Y253F]; test: Binding affinity to human phosphorylated ABL1 Y253F mutant (S229 to K512 residues) expressed in mammalian expression system assessed as residual binding level at 10 uM by Kinomescan method relative to control
[21] = target: Serine/threonine-protein kinase/endoribonuclease IRE1 (Homo sapiens) (UniProt O75460); test: Binding affinity to wild-type human partial length ERN1 (S551 to E852 residues) expressed in mammalian expression system assessed as residual binding level at 10 uM by Kinomescan method relative to control
[22] = target: Cyclin-dependent kinase-like 3 (Homo sapiens) (UniProt Q8IVW4); test: Binding affinity to wild-type human partial length CDKL3 (M1 to D327 residues) expressed in bacterial expression system assessed as residual binding level at 10 uM by Kinomescan method relative to control
[23] = target: Serine/threonine-protein kinase 3 (Homo sapiens) (UniProt Q13188); test: Binding affinity to wild-type human partial length MST2 (D17 to E318 residues) expressed in bacterial expression system assessed as residual binding level at 10 uM by Kinomescan method relative to control
[24] = target: Serine/threonine-protein kinase 35 (Homo sapiens) (UniProt Q8TDR2); test: Binding affinity to wild-type human partial length STK35 (G182 to A534 residues) expressed in bacterial expression system assessed as residual binding level at 10 uM by Kinomescan method relative to control
Sequence of Serine/threonine-protein kinase 35 (Homo sapiens) (Q8TDR2 whole entry, the tested form may be a part): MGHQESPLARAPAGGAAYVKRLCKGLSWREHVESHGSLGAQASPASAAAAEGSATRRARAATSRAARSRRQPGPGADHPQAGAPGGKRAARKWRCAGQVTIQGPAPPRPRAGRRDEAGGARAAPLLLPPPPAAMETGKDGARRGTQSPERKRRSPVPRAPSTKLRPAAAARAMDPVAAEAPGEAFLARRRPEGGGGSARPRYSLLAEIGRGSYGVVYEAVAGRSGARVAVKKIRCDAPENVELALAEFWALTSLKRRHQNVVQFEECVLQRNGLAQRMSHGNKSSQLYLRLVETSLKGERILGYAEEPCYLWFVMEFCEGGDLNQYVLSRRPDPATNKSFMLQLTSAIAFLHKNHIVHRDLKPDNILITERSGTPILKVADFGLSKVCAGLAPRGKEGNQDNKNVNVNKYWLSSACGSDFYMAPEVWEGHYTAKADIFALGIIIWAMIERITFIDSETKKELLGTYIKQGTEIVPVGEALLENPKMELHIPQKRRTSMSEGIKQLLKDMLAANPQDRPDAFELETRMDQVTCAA

Sequence of Aurora kinase B (Homo sapiens) (Q96GD4 whole entry, the tested form may be a part): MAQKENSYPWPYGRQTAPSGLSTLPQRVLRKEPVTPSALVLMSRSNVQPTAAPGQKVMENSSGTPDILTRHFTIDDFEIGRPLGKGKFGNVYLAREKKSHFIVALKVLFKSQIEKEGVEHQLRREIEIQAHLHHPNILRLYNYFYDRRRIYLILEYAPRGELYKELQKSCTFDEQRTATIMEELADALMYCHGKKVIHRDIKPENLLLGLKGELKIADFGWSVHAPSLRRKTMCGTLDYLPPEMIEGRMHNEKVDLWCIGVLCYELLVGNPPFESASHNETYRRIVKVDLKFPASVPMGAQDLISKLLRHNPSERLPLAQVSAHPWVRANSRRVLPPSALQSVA
Sequence of Epidermal growth factor receptor (Homo sapiens), P00533 [UNDEFINED MUTATION] (P00533 whole entry, looked up, stated change not applied, the tested form may be a part): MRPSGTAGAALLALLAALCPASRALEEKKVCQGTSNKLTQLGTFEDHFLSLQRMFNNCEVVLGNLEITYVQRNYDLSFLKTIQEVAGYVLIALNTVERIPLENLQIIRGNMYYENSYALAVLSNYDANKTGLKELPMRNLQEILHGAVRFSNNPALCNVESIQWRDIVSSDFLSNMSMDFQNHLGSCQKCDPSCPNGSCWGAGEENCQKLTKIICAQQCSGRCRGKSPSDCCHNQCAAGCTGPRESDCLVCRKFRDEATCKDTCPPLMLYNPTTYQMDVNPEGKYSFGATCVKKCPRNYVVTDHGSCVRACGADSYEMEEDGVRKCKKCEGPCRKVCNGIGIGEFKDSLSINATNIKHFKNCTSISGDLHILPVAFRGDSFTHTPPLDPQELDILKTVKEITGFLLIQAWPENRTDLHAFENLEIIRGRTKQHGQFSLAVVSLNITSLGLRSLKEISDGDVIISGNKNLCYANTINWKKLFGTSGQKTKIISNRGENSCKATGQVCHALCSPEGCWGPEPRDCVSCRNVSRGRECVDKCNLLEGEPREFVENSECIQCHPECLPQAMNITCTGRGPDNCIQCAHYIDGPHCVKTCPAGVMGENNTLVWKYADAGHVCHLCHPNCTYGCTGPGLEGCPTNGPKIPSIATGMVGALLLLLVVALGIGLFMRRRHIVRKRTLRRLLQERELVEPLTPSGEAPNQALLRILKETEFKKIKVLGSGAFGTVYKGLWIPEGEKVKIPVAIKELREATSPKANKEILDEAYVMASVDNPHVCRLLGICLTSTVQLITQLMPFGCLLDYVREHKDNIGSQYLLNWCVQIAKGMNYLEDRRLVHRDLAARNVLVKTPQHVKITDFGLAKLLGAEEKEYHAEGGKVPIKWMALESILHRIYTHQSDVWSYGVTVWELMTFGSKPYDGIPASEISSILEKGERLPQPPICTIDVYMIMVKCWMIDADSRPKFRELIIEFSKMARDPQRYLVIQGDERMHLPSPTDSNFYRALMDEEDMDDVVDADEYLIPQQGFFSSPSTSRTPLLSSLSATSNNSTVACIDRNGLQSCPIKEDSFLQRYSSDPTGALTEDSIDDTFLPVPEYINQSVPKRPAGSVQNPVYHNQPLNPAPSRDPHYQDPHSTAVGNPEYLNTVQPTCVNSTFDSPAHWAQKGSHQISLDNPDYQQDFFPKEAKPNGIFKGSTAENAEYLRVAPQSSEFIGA
Sequence of Cyclin-dependent kinase 5/CDK5 activator 1 (Q00535 whole entry, the tested form may be a part, canonical isoform): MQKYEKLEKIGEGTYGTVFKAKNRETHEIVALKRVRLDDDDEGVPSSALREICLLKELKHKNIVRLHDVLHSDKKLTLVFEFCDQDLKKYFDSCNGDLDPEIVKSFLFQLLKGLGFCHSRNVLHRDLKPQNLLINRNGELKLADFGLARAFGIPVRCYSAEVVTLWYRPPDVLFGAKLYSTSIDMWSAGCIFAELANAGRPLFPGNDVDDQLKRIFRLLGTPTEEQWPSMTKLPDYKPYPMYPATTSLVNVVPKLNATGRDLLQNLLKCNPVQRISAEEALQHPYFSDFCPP
Sequence of Cyclin-dependent kinase 5/CDK5 activator 1 (Q15078 whole entry, further chain, the tested form may be a part, canonical isoform): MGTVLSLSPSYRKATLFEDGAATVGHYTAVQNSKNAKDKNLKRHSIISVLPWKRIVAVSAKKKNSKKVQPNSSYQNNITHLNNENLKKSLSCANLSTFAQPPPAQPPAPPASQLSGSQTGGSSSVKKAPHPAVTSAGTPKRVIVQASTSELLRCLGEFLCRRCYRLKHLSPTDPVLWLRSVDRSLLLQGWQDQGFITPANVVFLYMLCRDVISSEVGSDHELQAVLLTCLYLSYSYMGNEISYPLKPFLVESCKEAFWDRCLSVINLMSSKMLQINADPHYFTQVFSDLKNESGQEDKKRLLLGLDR
Sequence of Serine/threonine-protein kinase/endoribonuclease IRE1 (Homo sapiens) (O75460 19-977 limits assumed): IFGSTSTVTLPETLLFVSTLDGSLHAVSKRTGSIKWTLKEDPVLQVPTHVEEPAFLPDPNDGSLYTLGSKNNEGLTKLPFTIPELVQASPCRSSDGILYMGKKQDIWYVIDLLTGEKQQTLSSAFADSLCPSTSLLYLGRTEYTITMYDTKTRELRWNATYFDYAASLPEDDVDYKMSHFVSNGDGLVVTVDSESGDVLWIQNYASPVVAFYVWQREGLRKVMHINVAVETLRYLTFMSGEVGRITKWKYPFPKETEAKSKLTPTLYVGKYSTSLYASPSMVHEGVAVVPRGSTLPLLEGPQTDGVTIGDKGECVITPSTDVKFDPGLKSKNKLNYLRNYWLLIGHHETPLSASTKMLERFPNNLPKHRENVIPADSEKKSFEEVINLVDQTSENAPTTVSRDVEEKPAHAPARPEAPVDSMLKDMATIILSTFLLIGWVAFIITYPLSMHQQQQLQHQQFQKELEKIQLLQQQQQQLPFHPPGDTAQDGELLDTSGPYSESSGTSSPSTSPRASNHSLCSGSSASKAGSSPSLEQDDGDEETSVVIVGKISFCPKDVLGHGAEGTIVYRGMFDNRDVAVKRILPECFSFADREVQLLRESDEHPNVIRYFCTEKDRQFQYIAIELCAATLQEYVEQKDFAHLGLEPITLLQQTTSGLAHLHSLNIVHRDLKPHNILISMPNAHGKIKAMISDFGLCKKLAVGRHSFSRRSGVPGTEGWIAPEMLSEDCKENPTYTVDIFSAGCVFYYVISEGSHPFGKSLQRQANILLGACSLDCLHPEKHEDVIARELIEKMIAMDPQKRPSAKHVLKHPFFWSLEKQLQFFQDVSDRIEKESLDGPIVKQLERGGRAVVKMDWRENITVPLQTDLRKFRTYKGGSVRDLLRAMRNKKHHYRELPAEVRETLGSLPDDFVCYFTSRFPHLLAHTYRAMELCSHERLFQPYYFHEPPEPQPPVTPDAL
Sequence of Membrane-associated tyrosine- and threonine-specific cdc2-inhibitory kinase (Homo sapiens) (Q99640 whole entry, the tested form may be a part): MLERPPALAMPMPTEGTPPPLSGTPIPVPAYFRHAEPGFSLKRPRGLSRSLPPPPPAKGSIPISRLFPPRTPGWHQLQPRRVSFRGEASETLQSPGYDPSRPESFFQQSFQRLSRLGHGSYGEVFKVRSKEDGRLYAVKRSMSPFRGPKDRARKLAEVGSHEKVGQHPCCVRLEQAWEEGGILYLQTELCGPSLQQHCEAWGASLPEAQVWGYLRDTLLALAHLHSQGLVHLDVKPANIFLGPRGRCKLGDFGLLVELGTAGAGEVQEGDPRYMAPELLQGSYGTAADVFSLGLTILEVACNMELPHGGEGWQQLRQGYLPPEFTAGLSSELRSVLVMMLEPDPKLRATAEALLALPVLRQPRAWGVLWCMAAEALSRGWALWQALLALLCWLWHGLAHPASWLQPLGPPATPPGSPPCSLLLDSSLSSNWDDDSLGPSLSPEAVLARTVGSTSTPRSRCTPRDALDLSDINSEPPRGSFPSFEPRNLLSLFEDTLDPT
Sequence of Phosphatidylinositol 3-kinase catalytic subunit type 3 (Homo sapiens) (Q8NEB9 whole entry, the tested form may be a part): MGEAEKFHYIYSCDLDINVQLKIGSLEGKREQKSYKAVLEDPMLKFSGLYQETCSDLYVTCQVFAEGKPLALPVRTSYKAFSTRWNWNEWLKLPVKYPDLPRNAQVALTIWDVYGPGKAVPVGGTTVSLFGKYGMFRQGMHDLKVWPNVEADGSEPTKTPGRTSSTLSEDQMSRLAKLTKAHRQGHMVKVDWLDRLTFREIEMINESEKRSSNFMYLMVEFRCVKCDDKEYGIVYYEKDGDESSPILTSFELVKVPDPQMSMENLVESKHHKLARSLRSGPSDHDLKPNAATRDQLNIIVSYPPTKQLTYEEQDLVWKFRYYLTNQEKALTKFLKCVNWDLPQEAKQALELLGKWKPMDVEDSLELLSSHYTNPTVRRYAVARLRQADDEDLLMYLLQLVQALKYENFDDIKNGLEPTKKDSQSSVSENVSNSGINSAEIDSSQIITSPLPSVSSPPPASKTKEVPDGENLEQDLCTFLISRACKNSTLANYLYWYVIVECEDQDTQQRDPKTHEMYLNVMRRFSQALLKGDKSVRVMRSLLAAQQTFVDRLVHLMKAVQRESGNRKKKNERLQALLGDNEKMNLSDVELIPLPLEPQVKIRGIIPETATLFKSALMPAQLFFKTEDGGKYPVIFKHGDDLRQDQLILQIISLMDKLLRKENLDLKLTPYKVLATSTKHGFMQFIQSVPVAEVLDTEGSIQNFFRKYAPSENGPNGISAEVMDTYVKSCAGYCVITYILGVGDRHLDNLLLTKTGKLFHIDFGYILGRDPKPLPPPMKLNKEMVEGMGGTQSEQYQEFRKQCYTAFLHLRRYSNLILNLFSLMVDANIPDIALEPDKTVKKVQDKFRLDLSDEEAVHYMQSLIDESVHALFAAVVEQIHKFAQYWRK

With `O=C(Nc1cc(-c2cn(CCNc3c4c(nc5ccccc35)CCCC4)nn2)ccn1)Nc1cccc2c1C1CCCCN1C2=O` (racemic) the Activity [1] was 5.6%, the Activity [2] was 100% and the pIC50 (Cholinesterase) was 6.52. For the same molecule, the Activity [3] was 3.7%, the Activity [4] was 13% and the Activity [5] was 38%. It also gave an Activity [6] of 100%, an Activity [7] of 9.1% and a cytotoxicity at 24 h, 100 µM [8] of 50%. For the same molecule, the pIC50 [9] was 6.10, the Activity [10] was 53% and the Activity [11] was 82%. The Activity [12] was 2.1%, the Activity [13] was 80% and the Activity [14] was 2.9%. It also gave an Activity [15] of 100%, an Activity [16] of 90% and an Activity [17] of 100%. For the same molecule, the Activity [18] was 99%, the Activity [19] was 31% and the Activity [20] was 0.95%. For the same molecule, the Activity [21] was 87%, the Activity [22] was 0% and the Activity [23] was 21%. For the same molecule, the Activity [24] was 97%.
